The NIST ThermoML archive (doi:10.1016/j.jct.2006.06.008)

Columns and labels:
[1] = 101 kPa, Liquid
[2] = xn = mol fraction of the nth substance listed; conditions: 101 kPa, Liquid

CCCO [propan-1-ol]
[1]
Conditions	mass density [kg/m3]	speed of sound [m/s]	viscosity [mPa·s]
293.15 K	803.59	1223	2.159
298.15 K	799.58	1206	1.915
303.15 K	795.55	1189	1.713

C1CCCCC1 [cyclohexane] + CCCCO
[2]
Conditions	mass density, 293.15 K [kg/m3]	mass density, 298.15 K [kg/m3]	mass density, 303.15 K [kg/m3]	speed of sound, 293.15 K [m/s]	speed of sound, 298.15 K [m/s]	speed of sound, 303.15 K [m/s]	viscosity, 293.15 K [mPa·s]	viscosity, 298.15 K [mPa·s]	viscosity, 303.15 K [mPa·s]
x1 = 0.0491	807.27	803.41	799.52	1254	1237	1220	2.777	2.437	2.147
x1 = 0.0988	804.96	801.04	797.08	1252	1234	1217	2.593	2.278	2.009
x1 = 0.2003	800.76	796.72	792.63	1249	1230	1211	2.254	1.984	1.756
x1 = 0.3081	796.54	792.37	788.15	1246	1227	1207	1.937	1.712	1.514
x1 = 0.4082	792.86	788.57	784.23	1245	1224	1204	1.684	1.492	1.33
x1 = 0.5125	789.41	785.01	780.55	1245	1224	1202	1.449	1.293	1.16
x1 = 0.6157	786.28	781.77	777.21	1247	1225	1202	1.257	1.13	1.023
x1 = 0.7086	783.78	779.19	774.55	1250	1227	1204	1.121	1.014	0.928
x1 = 0.8022	781.56	776.91	772.21	1255	1231	1208	1.047	0.955	0.874
x1 = 0.9029	779.62	774.9	770.14	1263	1239	1215	0.995	0.904	0.829
x1 = 0.9519	778.88	774.15	769.37	1269	1244	1220	0.972	0.889	0.817
x1 = 1	778.62	773.92	769.19	1279	1254	1230	0.968	0.887	0.816

CCCO [propan-1-ol] + C1CCCCC1
[2], x2 = 0
Conditions	mass density [kg/m3]	speed of sound [m/s]	viscosity [mPa·s]
293.15 K	803.59	1223	2.159
298.15 K	799.58	1206	1.915
303.15 K	795.55	1189	1.713

CCCCO [butan-1-ol] + C1CCCCC1
[2], x2 = 0
Conditions	mass density [kg/m3]	speed of sound [m/s]	viscosity [mPa·s]
293.15 K	809.5	1257	2.941
298.15 K	805.75	1240	2.571
303.15 K	801.8	1224	2.255

C1CCCCC1 [cyclohexane] + CCO
[2]
Conditions	mass density, 293.15 K [kg/m3]	mass density, 298.15 K [kg/m3]	mass density, 303.15 K [kg/m3]	speed of sound, 293.15 K [m/s]	speed of sound, 298.15 K [m/s]	speed of sound, 303.15 K [m/s]	viscosity, 293.15 K [mPa·s]	viscosity, 298.15 K [mPa·s]	viscosity, 303.15 K [mPa·s]
x1 = 0.0473	787	782.65	778.29	1162	1144	1127	1.148	1.046	0.956
x1 = 0.096	784.97	780.6	776.2	1165	1147	1129	1.102	1.009	0.922
x1 = 0.2043	781.33	776.87	772.37	1174	1155	1135	1.051	0.954	0.875
x1 = 0.3028	779.4	774.86	770.28	1184	1164	1144	1.005	0.918	0.838
x1 = 0.3979	778.2	773.6	768.95	1195	1174	1153	0.978	0.893	0.818
x1 = 0.5027	777.4	772.73	768	1208	1186	1164	0.954	0.87	0.796
x1 = 0.5939	776.98	772.26	767.49	1219	1196	1174	0.934	0.853	0.781
x1 = 0.7051	776.79	772.03	767.22	1232	1209	1186	0.915	0.836	0.769
x1 = 0.8055	776.89	772.11	767.28	1245	1221	1197	0.908	0.833	0.769
x1 = 0.9041	777.3	772.5	767.8	1258	1235	1211	0.923	0.846	0.778
x1 = 0.9534	777.74	772.98	768.18	1267	1242	1218	0.941	0.862	0.793
x1 = 1	778.62	773.92	769.19	1279	1254	1230	0.968	0.887	0.816

CCCCO [butan-1-ol] + C1CCCC1
[2], x2 = 0
Conditions	mass density [kg/m3]	speed of sound [m/s]	viscosity [mPa·s]
293.15 K	809.5	1257	2.941
298.15 K	805.75	1240	2.571
303.15 K	801.8	1224	2.255

C1CCCCC1 [cyclohexane] + CCCO
[2]
Conditions	mass density, 293.15 K [kg/m3]	mass density, 298.15 K [kg/m3]	mass density, 303.15 K [kg/m3]	speed of sound, 293.15 K [m/s]	speed of sound, 298.15 K [m/s]	speed of sound, 303.15 K [m/s]	viscosity, 293.15 K [mPa·s]	viscosity, 298.15 K [mPa·s]	viscosity, 303.15 K [mPa·s]
x1 = 0.0487	801.17	797.11	793.02	1222	1205	1187	2.079	1.842	1.645
x1 = 0.0993	798.82	794.71	790.56	1222	1204	1186	1.958	1.74	1.552
x1 = 0.1967	794.76	790.54	786.28	1223	1204	1185	1.735	1.544	1.379
x1 = 0.2993	791.11	786.78	782.41	1225	1205	1185	1.544	1.38	1.234
x1 = 0.4017	787.98	783.54	779.05	1228	1207	1186	1.391	1.249	1.124
x1 = 0.5071	785.25	780.71	776.12	1233	1211	1189	1.253	1.126	1.015
x1 = 0.6048	783.08	778.47	773.8	1238	1215	1193	1.135	1.026	0.937
x1 = 0.7036	781.23	776.55	771.82	1244	1221	1198	1.036	0.941	0.858
x1 = 0.8062	779.66	774.94	770.17	1252	1228	1204	0.98	0.895	0.822
x1 = 0.9053	778.68	773.93	769.14	1262	1237	1213	0.972	0.887	0.816
x1 = 0.9522	778.41	773.66	768.87	1268	1243	1219	0.969	0.892	0.81
x1 = 1	778.62	773.92	769.19	1279	1254	1230	0.968	0.887	0.816

CCCO [propan-1-ol] + C1CCCC1
[2], x2 = 0
Conditions	mass density [kg/m3]	speed of sound [m/s]	viscosity [mPa·s]
293.15 K	803.59	1223	2.159
298.15 K	799.58	1206	1.915
303.15 K	795.55	1189	1.713

C1CCCC1 [cyclopentane] + CCO
[2]
Conditions	mass density, 293.15 K [kg/m3]	mass density, 298.15 K [kg/m3]	mass density, 303.15 K [kg/m3]	speed of sound, 293.15 K [m/s]	speed of sound, 298.15 K [m/s]	speed of sound, 303.15 K [m/s]	viscosity, 293.15 K [mPa·s]	viscosity, 298.15 K [mPa·s]	viscosity, 303.15 K [mPa·s]
x1 = 0.0488	784.97	780.62	776.23	1157	1139	1122	1.148	1.047	0.956
x1 = 0.1011	780.67	776.25	771.78	1155	1137	1118	1.07	0.977	0.896
x1 = 0.1932	774.13	769.58	764.99	1154	1135	1116	0.955	0.875	0.806
x1 = 0.2926	768.22	763.55	758.83	1157	1136	1116	0.822	0.756	0.696
x1 = 0.3897	763.12	758.34	753.5	1162	1140	1118	0.735	0.679	0.628
x1 = 0.489	758.81	753.94	749.01	1168	1146	1123	0.659	0.609	0.564
x1 = 0.5973	754.7	749.75	744.74	1177	1153	1130	0.582	0.54	0.502
x1 = 0.7012	751.29	746.28	741.2	1186	1162	1137	0.521	0.487	0.456
x1 = 0.7992	748.53	743.48	738.38	1196	1171	1146	0.475	0.446	0.42
x1 = 0.8886	746.41	741.36	736.25	1208	1182	1156	0.448	0.423	0.4
x1 = 0.9495	745.36	740.33	735.23	1217	1192	1166	0.44	0.417	0.394
x1 = 1	744.52	739.55	734.54	1232	1206	1180	0.439	0.416	0.394
